The test system of one experiment is lead sensor. The experiment in a line: crosstalk between four metal-sensing aTFs using cell-free response. It counts as biochemical. As to conditions: heatmap. An excerpt:
FIG. 21. Design of mitigating cross-talk of sensors. Experimental measurement of crosstalk between four metal-sensing aTFs using cell-free response. Heatmap is colored more brightly to indicate stronger fluorescent signal.

The subject of experiment [1] is cell-free protein synthesis. Description: titration of analyte against an unregulated reporter plasmid (pT7-sfGFP) in a cell-free gene expression reaction. The conditions noted are these: 100 μM CuSO4; transcription and translation in vitro. It counts as biochemical, E. coli. An excerpt:
FIG. 4A-D. FIG. 4 illustrates various aspects of the biosensors of the present disclosure. (A) The “enriched” extract that contains the allosteric transcription factor can be mixed against a “blank” unenriched extract to modulate the concentration of the transcription factor in the reaction. (B) For tighter control and specificity of a cascaded system, if T7 RNA polymerase is used to drive expression of the allosteric transcription factor in the host strain of extract, an engineered variant of T7 RNAP may be used as the output of the regulated promoter. Exemplary T7 RNAP mutants are illustrated. […] The E. coli RNAP is used to express four T7 RNAP variants from a mock sensor plasmid (5 nM) that contains the consensus E. coli promoter J23119. The corresponding reporter plasmid is added at 5 nM. The kinetics of T7 RNAP synthesis lead to a time delay of about 20-30 minutes relative to a reaction that uses purified WT T7 RNAP. […] Reporter yields are from triplicates of four-hour sfGFP yields on a plate reader at 30° C. […]
A series of tuning experiments are next used to optimize the sensor. […] This experiment is an isothermal cell-free gene expression reaction held at 30° C. in a plate reader for ˜4 hours using an established set of physiochemical conditions to maximize protein production in general. […]

The structures appear in SMILES notation.

In the case of `[Cd]` [cadmium], in the experiment on lead sensor, the “crosstalk (fluorescent signal) of metal-sensing aTF sensor with non-cognate metal” value is given as “crosstalk for the lead sensor with cadmium”.

As for `O=S(=O)([O-])[O-].[Cu+2]` [CuSO4], the “effect on cell-free protein synthesis” value in experiment [1] is on record as “shuts down cell-free protein synthesis”.

These data come from patent publication US20250320506A1, “ULTR[…] M[…]-FREE […] CASCADED AMP[…] POSITIVE FEEDBACK” (Northwestern University, priority 2019, published 2025).
